In article PMC11350787, “Antimicrobial Properties and Cytotoxicity of LL-37-Derived Synthetic Peptides to Treat Orthopedic Infections” (Antibiotics, 2024):
Structures can show the parent of a compound that is named as a salt. One block for each molecule: values may come before it. Peptide text beside a SMILES is read from it.

Key:
E. coli ATCC 25922 = assay: microbe, parasite or virus in culture
Excerpt: (§1) A total of 18 bacterial strains relevant to orthopedic infections were used for microbiological tests, including 8 ATCC (American Type Culture Collection, ATCC, Manassas, VA, USA) and 10 clinical isolates (CI) from the Laboratory of Clinical Chemistry and Microbiology, IRCCS Ospedale Galeazzi–Sant’Ambrogio of Milan (Italy) strain collection. The ATCC strains were used for the first screening (MIC/MBC) of all the AMPs produced, while the clinical isolates were used for further MIC/MBC assays on selected AMPs. Among CI, S. epidermidis GOI1153754-03-14 has been already characterized and used in previous studies. All the strains were stocked at −80°C and working stocks were stored at −20 °C. At the occurrence, the bacteria were resuscitated in Brain Hearth Infusion (BHI, Millipore, Milan, Italy) broth at 37 °C for 18 h from the working stocks.
(§2) To determine the minimum inhibitory concentration (MIC) and the minimum bactericidal concentration (MBC), ISO20776-1 and Clinical and Laboratory Standards Institute guidelines were followed. A commercial synthetic LL-37 (Aurogene, Rome, Italy) was used as the control in the MIC and MBC assays. A stock solution of each AMP was prepared at 600 µg/mL to achieve a final concentration of 300 µg/mL. […] The MIC was determined according to the aforementioned standard guidelines. The MBC was determined by plating 2 µL of culture from each well of the MIC plates on a Tryptic Soy Agar (TSA, Millipore, Milan, Italy) plate and incubated for 24 h at 37 °C. The concentration at which there was no growth was recorded as MBC. Each experiment was carried out in triplicate. Representative MIC and MBC values for vancomycin and gentamicin were assessed to offer a benchmark comparison for the AMPs. Quality control was conducted with Staphylococcus aureus ATCC 29,213 and vancomycin according to EUCAST guidelines.

P. aeruginosa ATCC 27853 = assay: microbe, parasite or virus in culture
Excerpt: as §1, §2

S. aureus ATCC 25923 = assay: microbe, parasite or virus in culture
Excerpt: as §1, §2

S. aureus ATCC 43300 = assay: microbe, parasite or virus in culture
Excerpt: as §1, §2

S. aureus ATCC 49230 = assay: microbe, parasite or virus in culture
Excerpt: as §1, §2

[1] = tested on: S. epidermidis ATCC 14990; assay: microbe, parasite or virus in culture
Excerpt: as §1, §2

[2] = tested on: S. epidermidis ATCC 35984; assay: microbe, parasite or virus in culture
Excerpt: as §1, §2

ATCC strains = tested on: ATCC strains
Excerpt: as §1, §2

Minimum Inhibitory Concentration (MIC) (E. coli ATCC 25922; ATCC 25922, 18 h): >300.00 µg/mL
Minimum Inhibitory Concentration (MIC) (P. aeruginosa ATCC 27853; ATCC 27853, 18 h): >300.00 µg/mL
Minimum Inhibitory Concentration (MIC) (S. aureus ATCC 25923; ATCC 25923, 18 h): >300.00 µg/mL
Minimum Inhibitory Concentration (MIC) (S. aureus ATCC 43300; ATCC 43300, 18 h): >300.00 µg/mL
Minimum Inhibitory Concentration (MIC) (S. aureus ATCC 49230; ATCC 49230, 18 h): >300.00 µg/mL
Minimum Inhibitory Concentration (MIC) ([1]; ATCC 14990, 18 h): >300.00 µg/mL
Minimum Inhibitory Concentration (MIC) ([2]; ATCC 35984, 18 h): >300.00 µg/mL
MIC values over all ATCC strains tested (ATCC strains; 18 h): greater than 300 µg/mL
Structure (SMILES): CC[C@H](C)[C@H](NC(=O)[C@H](CCCNC(=N)N)NC(=O)[C@H](CCC(N)=O)NC(=O)[C@@H](NC(=O)[C@@H](NC(=O)[C@H](CCCNC(=N)N)NC(=O)[C@@H](N)CCCCN)[C@@H](C)CC)C(C)C)C(=O)N[C@@H](CCCCN)C(=O)N[C@@H](CC(=O)O)C(=O)N[C@@H](Cc1ccccc1)C(=O)N[C@@H](CC(C)C)C(=O)N[C@@H](CCCNC(=N)N)C(N)=O [KR-12] (H-KRIVQRIKDFLR-NH2)
Minimum Bactericidal Concentration (MBC) (E. coli ATCC 25922; ATCC 25922, 24 h): >300.00 µg/mL
Minimum Bactericidal Concentration (MBC) (P. aeruginosa ATCC 27853; ATCC 27853, 24 h): >300.00 µg/mL
Minimum Bactericidal Concentration (MBC) (S. aureus ATCC 25923; ATCC 25923, 24 h): >300.00 µg/mL
Minimum Bactericidal Concentration (MBC) (S. aureus ATCC 43300; ATCC 43300, 24 h): >300.00 µg/mL
Minimum Bactericidal Concentration (MBC) (S. aureus ATCC 49230; ATCC 49230, 24 h): >300.00 µg/mL
Minimum Bactericidal Concentration (MBC) ([1]; ATCC 14990, 24 h): >300.00 µg/mL
Minimum Bactericidal Concentration (MBC) ([2]; ATCC 35984, 24 h): >300.00 µg/mL

Structure (SMILES): O=C(O)C(F)(F)F [Na-TFA, Trifluoroacetic acid, reference compound]
MBC (E. coli ATCC 25922; Escherichia coli, ATCC25922, 24 h, read-out: Minimum Bactericidal Concentration (MBC)): > 200 µg/mL
MIC (E. coli ATCC 25922; Escherichia coli, ATCC25922, read-out: Minimum Inhibitory Concentration (MIC)): > 200 µg/mL
MBC (P. aeruginosa ATCC 27853; Pseudomonas aeruginosa, ATCC27853, 24 h, read-out: Minimum Bactericidal Concentration (MBC)): > 200 µg/mL
MIC (P. aeruginosa ATCC 27853; Pseudomonas aeruginosa, ATCC27853, read-out: Minimum Inhibitory Concentration (MIC)): > 200 µg/mL
MBC (S. aureus ATCC 25923; Staphylococcus aureus, ATCC25923, 24 h, read-out: Minimum Bactericidal Concentration (MBC)): > 200 µg/mL
MIC (S. aureus ATCC 25923; Staphylococcus aureus, ATCC25923, read-out: Minimum Inhibitory Concentration (MIC)): > 200 µg/mL
MBC (S. aureus ATCC 43300; Staphylococcus aureus, ATCC43300, 24 h, read-out: Minimum Bactericidal Concentration (MBC)): > 200 µg/mL
MIC (S. aureus ATCC 43300; Staphylococcus aureus, ATCC43300, read-out: Minimum Inhibitory Concentration (MIC)): > 200 µg/mL
MBC (S. aureus ATCC 49230; Staphylococcus aureus, ATCC49230, 24 h, read-out: Minimum Bactericidal Concentration (MBC)): > 200 µg/mL
MIC (S. aureus ATCC 49230; Staphylococcus aureus, ATCC49230, read-out: Minimum Inhibitory Concentration (MIC)): > 200 µg/mL
MBC ([1]; Staphylococcus epidermidis, ATCC14990, 24 h, read-out: Minimum Bactericidal Concentration (MBC)): > 200 µg/mL
MIC ([1]; Staphylococcus epidermidis, ATCC14990, read-out: Minimum Inhibitory Concentration (MIC)): > 200 µg/mL
MBC ([2]; Staphylococcus epidermidis, ATCC35984, 24 h, read-out: Minimum Bactericidal Concentration (MBC)): > 200 µg/mL
MIC ([2]; Staphylococcus epidermidis, ATCC35984, read-out: Minimum Inhibitory Concentration (MIC)): > 200 µg/mL
Bacteriostatic or bactericidal effect (ATCC strains; all ATCC strains, at the concentrations tested (up to 200 µg/mL)): no bacteriostatic or bactericidal effect
